Columns and labels:
PC12 cells = assay: Neuritogenesis in PC12 cells; format: cell-based, rat; design: key to Neuritogenesis: fraction of cells bearing neurites (mean ± SEM)
In short: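 Rat pheochromocytoma PC12 cells on poly-ornithine were treated with AIT-082 alongside saturating NGF (40 ng/ml) from plating for 48 h, then formalin-fixed. Neurites ≥1 cell-body diameter with growth cone were counted; the neurite-bearing fraction is expressed relative to NGF alone (100%), mean ±SEM of 6 cultures.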

[1] = tested on: cGMP levels in PC12 cells; assay: cGMP levels in PC12 cells (radioimmunoassay); format: cell-based, rat; conditions: NGF-primed PC12 cells
Description: Initially, PC-12 cells were primed with 40 ng/ml NGF for 3 days in low serum medium (1.5% horse serum+5% fetal calf serum). Cells were seeded onto assay plates in low serum medium containing 40 ng/ml NGF and incubated for 1 hour. The medium was changed to low arginine medium (80 μM) with no serum and NGF and papaverine ([…]) where indicated. Test compounds were added for the indicated time and the reaction was stopped by adding 5% TCA containing 10,000 dpm of ^3H-cGMP. cGMP was assayed by the radioimmunoassay method of Maurice (Mol. Pharmacol. 37: 671-681, 1990). TCA was purified by adding powdered charcoal (5 g) and filtering the mixture through Whatman #1 paper. This removed contaminants in the TCA that otherwise interfere with the radioimmunoassay (RIA) of cGMP.
It was necessary to purify the cGMP from cAMP and other contaminants before radioimmunoassay since these other materials can interfere with the assay. Briefly, the TCA solution was applied to Dowex columns (50W-8X, 200-400 mesh) and eluted. A neutral alumina column was then placed under each Dowex column. The cGMP was eluted from the Dowex columns into neutral alumina columns by adding 4 mL of 0.05 M HCl to each Dowex column. The neutral alumina columns were then sequentially rinsed with 2 ml of HCl, 4 mL water and finally with 0.2 M sodium acetate (pH 6.2). The cGMP collected for the RIA eluted in 1 ML of sodium acetate with a recovery between 50-65%. The cGMP was assayed using a Dupont RIA kit.

NGF = assay: Western blot of astrocyte cytosolic proteins: NGF; format: cell-based, rat
Description: (§1) Western blot analysis of cytosolic proteins from cultured astrocytes was performed to detect the factors NGF and TGFβ2. The results are shown in FIG. 58A for NGF at 6 and 12 hours and in FIG. 58B for TGFβ2 at 6 and 12 hours.
(§2) Western blot analysis of cytosolic proteins deriving from cultured astrocytes treated for 6 or 12 hours with 100 μM AIT-082 was performed. AIT-082 is able to promote the production of neurotrophic factors from rat cultured astrocytes as measured by Western blot analysis. The results are shown in FIG. 62A for NGF and in FIG. 62B for TGFβ2. Electrophoresis was performed in 12% (for NBF) or 15% (for TGFβ2) SDS-PAGE (20 μg of total protein per lane). The separated proteins were transferred onto a PVDF membrane (Bio-Rad Laboratories, Italy).

TGFβ2 = assay: Western blot of astrocyte cytosolic proteins: TGFβ2; format: cell-based, rat
Description: as §1, §2

rat cultured astrocytes = assay: Release of radioactively labeled adenine-based purines from rat cultured astrocytes; format: cell-based

Structure (SMILES): O=C(CCn1cnc2c(=O)[nH]cnc21)Nc1ccc(C(=O)O)cc1 [AIT-082, N-4-carboxyphenyl-3-(6-oxohydropurin-9-yl)propanamide]
- Neuritogenesis (PC12 cells; AIT-082 10 μM, L-NAME 0.1 μM): 0.220 ± 0.010
- Neuritogenesis (PC12 cells; AIT-082 10 μM, L-NAME 1.0 μM): 0.302 ± 0.027
- Neuritogenesis (PC12 cells; AIT-082 10 μM, L-NAME 10.0 μM): 0.254 ± 0.018
- Neuritogenesis (PC12 cells; AIT-082 10 μM, L-NAME None): 0.254 ± 0.008
- Neuritogenesis (PC12 cells; AIT-082 100 μM, L-NAME 0.1 μM): 0.257 ± 0.016
- Neuritogenesis (PC12 cells; AIT-082 100 μM, L-NAME 1.0 μM): 0.232 ± 0.019
- Neuritogenesis (PC12 cells; AIT-082 100 μM, L-NAME 10.0 μM): 0.289 ± 0.006
- Neuritogenesis (PC12 cells; AIT-082 100 μM, L-NAME None): 0.309 ± 0.027
- Proportion of cells bearing neurites, AIT-082 + NGF (PC12 cells; AIT-082 10 mM + NGF 40 ng/ml, no inhibitor): 0.26 ± 0.01
- Proportion of cells bearing neurites, AIT-082 alone (PC12 cells; AIT-082 10 mM, no NGF, no inhibitor, 48 hours): 0.2 ± 0.02
- Proportion of cells bearing neurites, AIT-082 + NGF (PC12 cells; AIT-082 + NGF 40 ng/ml, Methemoglobin 1 μM): 0.17 ± 0.02
- Proportion of cells bearing neurites, AIT-082 + NGF (PC12 cells; AIT-082 + NGF 40 ng/ml, Methylene Blue 5 μM): 0.10 ± 0.01
- Proportion of cells bearing neurites, AIT-082 + NGF (PC12 cells; AIT-082 + NGF 40 ng/ml, Zn Protoporphyrin IX 1 μM): 0.13 ± 0.01
- concentration effective in stimulating neuritogenesis and enhancing NGF-stimulated neuritogenesis (PC12 cells; PC12 cells, 48 hours): 1 mM
- neuritogenesis compared with NGF (PC12 cells; PC12 cells, 48 hours): as effective as NGF
- enhancement of the optimal effects of NGF on neuritogenesis (PC12 cells; with 40 ng/ml NGF, 48 hours): 30%
- cGMP in PC12 cells [1]: increased the production of cGMP
- intracellular levels of NGF (NGF; 100 μM AIT-082, 6 or 12 hours): increased in time-dependent manner
- intracellular levels of TGFβ2 (TGFβ2; 100 μM AIT-082, 6 or 12 hours): increased in time-dependent manner
- outflow of radioactive adenine-based purines (rat cultured astrocytes; astrocytes exposed for one hour): dose-dependent increase
- release of adenosine and inosine (rat cultured astrocytes; first hour of the release): increased the release of adenosine and inosine in a dose-dependent fashion
- release of hypoxanthine and the adenine nucleotides ATP, ADP, or AMP (rat cultured astrocytes; first hour of the release): without effecting the release

Structure (SMILES): Nc1nc2c(ncn2[C@@H]2O[C@H](CO)[C@@H](O)[C@H]2O)c(=O)[nH]1 [guanosine]
- neurite outgrowth in the absence of NGF (PC12 cells; compound alone): slightly increased the proportion of cells with neurites
- enhancement of NGF-induced neurite outgrowth (PC12 cells; in the presence of NGF, 48 hours): enhanced the neurite outgrowth induced by NGF
- cGMP in PC12 cells [1]: increased intracellular cGMP
- intracellular content of NGF (NGF; guanosine, 6 and 12 hours): increased the intracellular content of NGF and TGFβ2 in time-dependent fashion
- intracellular content of TGFβ2 (TGFβ2; guanosine, 6 and 12 hours): increased the intracellular content of NGF and TGFβ2 in time-dependent fashion
- ADP, radioactivity released in the culture medium (rat cultured astrocytes; 300 μM, 1 hour): 0.84 ± 0.09 cpm × 10^3
- AMP, proportional release (rat cultured astrocytes; 300 μM, 1 hour): (12.3 ± 1.7) percentage of the total [^3H]-purines released
- AMP, radioactivity released in the culture medium (rat cultured astrocytes; 300 μM, 1 hour): 1.58 ± 0.22 cpm × 10^3
- ATP, proportional release (rat cultured astrocytes; 300 μM, 1 hour): (5.5 ± 0.7) percentage of the total [^3H]-purines released
- ATP, radioactivity released in the culture medium (rat cultured astrocytes; 300 μM, 1 hour): 0.71 ± 0.09 cpm × 10^3
- Adenosine, radioactivity released in the culture medium (rat cultured astrocytes; 300 μM, 1 hour): 1.53 ± 0.10 cpm × 10^3
- Hypoxanthine, proportional release (rat cultured astrocytes; 300 μM, 1 hour): (24.7 ± 1.5) percentage of the total [^3H]-purines released
- Hypoxanthine, radioactivity released in the culture medium (rat cultured astrocytes; 300 μM, 1 hour): 3.41 ± 0.20 cpm × 10^3
- Inosine, radioactivity released in the culture medium (rat cultured astrocytes; 300 μM, 1 hour): 4.64 ± 0.51 cpm × 10^3
- ADP, proportional release (rat cultured astrocytes; 300 μM, 3 hours): (4.0 ± 0.6) percentage of the total [^3H]-purines released
- ADP, radioactivity released in the culture medium (rat cultured astrocytes; 300 μM, 3 hours): 0.50 ± 0.07 cpm × 10^3
- AMP, proportional release (rat cultured astrocytes; 300 μM, 3 hours): (11.9 ± 1.0) percentage of the total [^3H]-purines released
- AMP, radioactivity released in the culture medium (rat cultured astrocytes; 300 μM, 3 hours): 1.37 ± 0.14 cpm × 10^3
- ATP, proportional release (rat cultured astrocytes; 300 μM, 3 hours): (3.1 ± 0.32) percentage of the total [^3H]-purines released
- ATP, radioactivity released in the culture medium (rat cultured astrocytes; 300 μM, 3 hours): 0.39 ± 0.04 cpm × 10^3
- Adenosine, proportional release (rat cultured astrocytes; 300 μM, 3 hours): (9.3 ± 0.9) percentage of the total [^3H]-purines released
- Adenosine, radioactivity released in the culture medium (rat cultured astrocytes; 300 μM, 3 hours): 1.16 ± 0.15 cpm × 10^3
- Hypoxanthine, proportional release (rat cultured astrocytes; 300 μM, 3 hours): (26.3 ± 2.7) percentage of the total [^3H]-purines released
- Hypoxanthine, radioactivity released in the culture medium (rat cultured astrocytes; 300 μM, 3 hours): 3.29 ± 0.34 cpm × 10^3
- Inosine, proportional release (rat cultured astrocytes; 300 μM, 3 hours): (3.25 ± 3.3) percentage of the total [^3H]-purines released
- Inosine, radioactivity released in the culture medium (rat cultured astrocytes; 300 μM, 3 hours): 4.09 ± 0.41 cpm × 10^3

Source: patent publication US6338963B1, “Use of carbon monoxide dependent guanylyl cyclase modifiers to stimulate neuritogenesis” (NeoTherapeutics, Inc., priority 1994, dated 2002)
